For orientation: inhibition means the percentage by which the read-out fell short of the control.

The target of the assay is T1, recombinant human plasminogen activator inhibitor-1 (PAI-1) (Homo sapiens, UniProt P05121).
T1 construct: purchased Molecular Innovations, Royal Oak, Mich
T1 sequence (P05121 24-402): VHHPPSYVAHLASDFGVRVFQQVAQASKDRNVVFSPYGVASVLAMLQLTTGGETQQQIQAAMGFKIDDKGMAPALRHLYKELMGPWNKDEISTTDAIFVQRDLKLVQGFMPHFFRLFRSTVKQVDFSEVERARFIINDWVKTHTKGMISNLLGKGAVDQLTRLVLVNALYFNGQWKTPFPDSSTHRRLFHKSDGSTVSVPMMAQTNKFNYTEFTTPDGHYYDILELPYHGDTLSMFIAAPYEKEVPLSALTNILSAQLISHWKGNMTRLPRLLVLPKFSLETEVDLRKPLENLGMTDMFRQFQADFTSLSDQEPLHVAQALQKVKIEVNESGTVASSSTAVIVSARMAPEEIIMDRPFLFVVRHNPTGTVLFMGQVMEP
Description: Screening for PAI-1 inhibition (residual tPA activity, Spectrozyme-tPA chromogenic substrate). The format is biochemical. To be noted: test compound at 100 Um; pH 6.6 buffer, 140 nM PAI-1, 70 nM tPA. As for the experimental part:
Screening for PAI-1 inhibition. Test compounds are dissolved in DMSO at a final concentration of 10 Mm, then diluted 100× in physiologic buffer. The inhibitory assay is initiated by the addition of the test compound (1-100 μM final concentration, maximum DMSO concentration of 0.2%) in a Ph 6.6 buffer containing 140 Nm recombinant human plasminogen activator inhibitor-1 (PAI-1; Molecular Innovations, Royal Oak, Mich.). Following a 1 hour incubation at room temperature, 70 Nm of recombinant human tissue plasminogen activator (Tpa) is added, and the combination of the test compound, PAI-1 and Tpa is incubated for an additional 30 minutes. Following the second incubation, Spectrozyme-Tpa (American Diagnostica, Greenwich, Conn.), a chromogenic substrate for Tpa, is added and absorbance read at 405 nm at 0 and 60 minutes. Relative PAI-1 inhibition is equal to the residual Tpa activity in the presence of the test compounds and PAI-1. Control treatments include the complete inhibition of Tpa by PAI-1 at the molar ratio employed (2:1), and the absence of any effect of the test compound on Tpa alone.
Take `O=C(O)CO/N=C/c1ccc(-c2ccc(OCc3cccc(Br)c3)cc2)cc1` [Compound 103, {[((1E)-{4′-[(3-bromobenzyl)oxy]-1,1′-biphenyl-4-yl}methylidene)amino]oxy}acetic acid]: the inhibition at 100 µM stood at 62%. As for `C#CCn1cc(/C=N/OCC(=O)O)c2cc(OCc3ccc(C(C)(C)C)cc3)ccc21` [Compound 33, [({(1E)-[5-[(4-tert-butylbenzyl)oxy]-1-(2-propynyl)-1H-indol-3-yl]methylidene}amino)oxy]acetic acid], the figure is 91%; as for `O=C(O)CO/N=C/c1cc(OCc2cccc(Br)c2)ccc1OCc1cccc(Br)c1` [Compound 158, {[((1E)-{2,5-bis[(3-bromobenzyl)oxy]phenyl}methylidene)amino]oxy}acetic acid], 69%. To `O=C(O)CO/N=C/c1ccc(C#CCOc2cc(C(F)(F)F)cc(C(F)(F)F)c2)cc1` [Compound 164, ({[(1E)-(4-{3-[3,5-bis(trifluoromethyl)phenoxy]prop-1-ynyl}phenyl)methylidene]amino}oxy) acetic acid] belongs 73%; to `Cc1cccc(COc2ccc(/C=N/OCC(=O)O)c(OCc3cccc(C)c3)c2)c1` [Compound 129, {[((1E)-{2,4-bis[(3-methylbenzyl)oxy]phenyl}methylidene)amino]oxy}acetic acid], 90%; to `CCn1cc(/C=N/OCC(=O)O)c2cc(OCc3ccc(C)cc3)ccc21` [Compound 20, {[((1E)-{1-ethyl-5-[(4-methylbenzyl)oxy]-1H-indol-3-yl}methylidene)amino]oxy}acetic acid], 44%. To `O=C(O)CO/N=C/c1cccc(-c2ccc(OCc3ccc(C(F)(F)F)cc3)cc2)c1` [Compound 73, ({[(1E)-(4′-{[4-(trifluoromethyl)benzyl]oxy}-1,1′-biphenyl-3-yl)methylidene]amino}oxy)acetic acid] belongs 59%; to `O=C(O)CO/N=C/c1cccc(-c2ccc(OCc3ccccc3)cc2)c1` [Compound 79, [({(1E)-[4′-(benzyloxy)-1,1′-biphenyl-3-yl]methylidene}amino)oxy]acetic acid], 53%. For `C#CCn1cc(/C=N/OCC(=O)O)c2cc(OCc3ccc(Cl)c(Cl)c3)ccc21` [Compound 51, [({(1E)-[5-[(3,4-dichlorobenzyl)oxy]-1-(2-propynyl)-1H-indol-3-yl]methylidene}amino)oxy]acetic acid], the inhibition at 100 µM stood at 86%.

Consider `O=C(O)CO/N=C/c1cc(OCc2ccc(C(F)(F)F)cc2)cc(OCc2ccc(C(F)(F)F)cc2)c1` [Compound 144, ({[(1E)-(3,5-bis{[4-(trifluoromethyl)benzyl]oxy}phenyl)methylidene]amino}oxy)acetic acid], for which the inhibition at 100 µM stood at 93%.

For `O=C(O)CO/N=C/c1ccc(-c2ccc(OCc3cccc(C(F)(F)F)c3)cc2)cc1` [Compound 106, ({[(1E)-(4′-{[3-(trifluoromethyl)benzyl]oxy}-1,1′-biphenyl-4-yl)methylidene]amino}oxy)acetic acid], the inhibition at 100 µM amounted to 8%. For `Cn1cc(/C=N/OCC(=O)O)c2cc(OCc3ccc(Cl)c(Cl)c3)ccc21` [Compound 54, {[((1E)-{5-[(3,4-dichlorobenzyl)oxy]-1-methyl-1H-indol-3-yl}methylidene)amino]oxy}acetic acid], the inhibition at 100 µM came to 91%.

As to `O=C(O)CO/N=C/c1ccc(OCc2cccc(Cl)c2)cc1OCc1cccc(Cl)c1` [Compound 127, {[((1E)-{2,4-bis[(3-chlorobenzyl)oxy]phenyl}methylidene)amino]oxy}acetic acid], the inhibition at 100 µM is 88%. To `O=C(O)CO/N=C/c1ccc(-c2cccc(OCc3ccccc3)c2)cc1` [Compound 93, [({(1E)-[3′-(benzyloxy)-1,1′-biphenyl-4-yl]methylidene}amino)oxy]acetic acid] belongs 85%.

For `O=C(O)CO/N=C/c1cccc(-c2ccc(OCc3ccc(Br)cc3)cc2)c1` [Compound 75, {[((1E)-{4′-[(4-bromobenzyl)oxy]-1,1′-biphenyl-3-yl}methylidene)amino]oxy}acetic acid], the inhibition at 100 µM came out at 75%. For the compound `Cc1ccc(COc2cccc(/C=N/OCC(=O)O)c2OCc2ccc(C)cc2)cc1` [Compound 140, {[((1E)-{2,3-bis[(4-methylbenzyl)oxy]phenyl}methylidene)amino]oxy}acetic acid], the inhibition at 100 µM was 94%. As for `O=C(O)CO/N=C/c1cccc(-c2cccc(OCc3c(Cl)cccc3Cl)c2)c1` [Compound 72, {[((1E)-{3′-[(2,6-dichlorobenzyl)oxy]-1,1′-biphenyl-3-yl}methylidene)amino]oxy}acetic acid], the figure is 88%; as for `O=C(O)CO/N=C/c1cccc(-c2cccc(OCc3ccc(Cl)cc3)c2)c1` [Compound 66, {[((1E)-{3′-[(4-chlorobenzyl)oxy]-1,1′-biphenyl-3-yl}methylidene)amino]oxy}acetic acid], 84%; as for `O=C(O)CO/N=C/c1ccc(OCc2ccc(F)c(F)c2)cc1OCc1ccc(F)c(F)c1` [Compound 131, {[((1E)-{2,4-bis[(3,4-difluorobenzyl)oxy]phenyl}methylidene)amino]oxy}acetic acid], 88%. Consider `O=C(O)CO/N=C/c1cn(Cc2ccccc2)c2ccc(OCc3ccc(Cl)cc3)cc12` [Compound 46, {[((1E)-{1-benzyl-5-[(4-chlorobenzyl)oxy]-1H-indol-3-yl}methylidene)amino]oxy}acetic acid], for which the inhibition at 100 µM is 86%. As for `O=C(O)CO/N=C/c1ccc(OCc2cccc(Br)c2)c(OCc2cccc(Br)c2)c1` [Compound 117, {[((1E)-{3,4-bis[(3-bromobenzyl)oxy]phenyl}methylidene)amino]oxy}acetic acid], the figure is 88%; as for `Cc1ccc(COc2ccc(-c3ccc(/C=N/OCC(=O)O)cc3)cc2)cc1` [Compound 109, {[((1E)-{4′-[(4-methylbenzyl)oxy]-1,1′-biphenyl-4-yl}methylidene)amino]oxy}acetic acid], 7%; as for `CC(C)(C)c1ccc(COc2ccc(/C=N/OCC(=O)O)c(OCc3ccc(C(C)(C)C)cc3)c2)cc1` [Compound 126, {[((1E)-{2,4-bis[(4-tert-butylbenzyl)oxy]phenyl}methylidene)amino]oxy}acetic acid], 77%.

Consider `O=C(O)CO/N=C/c1ccc(-c2cccc(OCc3cc(C(F)(F)F)cc(C(F)(F)F)c3)c2)cc1` [Compound 90, ({[(1E)-(3′-{[3,5-bis(trifluoromethyl)benzyl]oxy}-1,1′-biphenyl-4-yl)methylidene]amino}oxy)acetic acid], for which the inhibition at 100 µM was found to be 30%. As for `Cn1cc(/C=N/OCC(=O)O)c2cc(OCc3cccc(C(F)(F)F)c3)ccc21` [Compound 43, ({[(1E)-(1-methyl-5-{[3-(trifluoromethyl)benzyl]oxy}-1H-indol-3-yl)methylidene]amino}oxy)acetic acid], the figure is 81%; as for `Cc1cccc(COc2cccc(/C=N/OCC(=O)O)c2OCc2cccc(C)c2)c1` [Compound 138, {[((1E)-{2,3-bis[(3-methylbenzyl)oxy]phenyl}methylidene)amino]oxy}acetic acid], 88%.

The values are drawn from patent publication US7411083B2, “Substituted acetic acid derivatives” (Wyeth, priority 2003, dated 2008).
